Assays:
Format in all cases: physicochemical
[1] = strain-promoted 1,3-dipolar cycloaddition kinetics with benzyl azide (experimental second order rate constants); conditions: for k2: 1,3-dipolar cycloaddition with benzyl azide 5, acetonitrile, ambient temperatures; for krel.: reaction with benzyl azide, relative to 4b = 1.0; for change of rate of reaction with benzyl azide, in words: relative to the comparator alkyne; for Experimental Rate: CD3CN
Text: The reactivity of the novel strained alkyne derivatives disclosed herein were first assessed using benzyl azide 5 as a model substrate (Table 1, model reaction at top). […] When steric hindrance was increased by placing the more bulky isopropyl group at C1, the rate of the reaction slowed to a sixth of that of […]. […] The effects of the heteroatoms in the ring were similarly pronounced. […] For Me-substituted substrates 4a and 4d, the rates slowed to roughly half their unprotected values. While a more electron-poor nitrogen heteroatom is expected to result in a stronger electronic effect and an expected increase in reaction rate, the conflicting effects of bond lengthening and steric repulsion between the Boc and R^1 groups overrides any benefit and results in a net slowing of rate. Similarly, when the homopropargylic oxygen atom was replaced with a Boc-protected nitrogen atom, the rate fell dramatically to an eighteenth of that of the sulfamate (4f). The fastest substrate, 1a, compares favorably to other reported strained alkynes. It is faster than OCT, the exocyclic heteroatom-activated MOFO, and the endocyclic heteroatom-activated alkynes reported by Toomoka et al., supra. The reaction rate of 1a is surpassed only slightly by DIFO.
With the difluorinated SNO-OCT 8a in hand, preliminary kinetic studies were carried out (Table 7) and compared to computed and experimental rates of both the parent SNO-OCTs 4 and 6, as well as 8. A rate enhancement of 13-fold was predicted in moving from the parent SNO-OCT 6 (entry 1, right column) to the difluorinated SNO-OCT 8 (entry 3, right column) in reactions with alkyl azides; this was quite similar to the experimental rate enhancement seen in moving from 4 to 8a of 18× (entries 1 and 3 in the left column).

[2] = experimental rate comparison of cycloalkynes with diazoacetamide 8 and azidoacetamide 7; conditions: ratio of rate constants with diazoacetamide and azidoacetamide
Text: For these exploratory studies, diazoacetamide 8 (Table 3) and azidoacetamide 7 were chosen because of the increased nucleophilicity of 8 as compared to azide 7 and its ability to survive cellular metabolism. When comparing rate differences with diazoacetamide 8 and azidoacetamide 7 for common cycloalkynes, DIBAC reacted˜5-times faster with the diazoacetamide than the analogous azide in 1:1 CD3CN:D2O. […] At the same time, these compounds provide for complete selectivity that is as of yet lacking in cyclooctynes. It was hypothesized by the present inventors that properly positioned heteroatoms in sulfamate-derived cyclooctynes would lead to an increase in diazo-selective reactivity over azides, thus enabling orthogonal bioconjugation techniques.
The effects of the various heteroatoms on this increased chemoselectivity were investigated computationally. […] In contrast, the ΔΔG‡ is expected to increase, likely due to increased steric repulsion from the bulky Boc-group. This difference in rate provides ˜9:1 selectivity in competition experiments involving 1:1:1 mixtures of diazoacetamide […]:alkyne (4d, 4e). Efforts to improve the selectivity for reaction with 1 were undertaken by examining the effects of both propargylic and homopropargylic heteroatoms in 4.

[3] = experimental cycloaddition of SNO-OCTs with diazoacetamide; conditions: dipole diazoacetamide; CD3CN
Text: A rate enhancement of ˜300-fold was predicted in moving from the parent SNO-OCT 6 (entry 2, right column) to the difluorinated SNO-OCT 8 (entry 4, right column) in reactions with alkyl diazaoacetamides. Experimentally, the rate enhancement in moving from 4 to 8a (entries 2 and 4 in the left column) could not be determined using proton NMR spectroscopy to monitor the progress of the reaction. […] While orthogonality was also observed for reactions of 4 and 8a with azides, the selectivity appeared to be lower than that predicted for the diazoalkanes.

Compound	k2 [1] [M⁻¹ s⁻¹]	krel. [1]	change of rate of reaction with benzyl azide, in words [1]	further results
CC1C#CCCOS(=O)(=O)N1 (stereo not drawn) [4a]	0.066	2.6	–	k2 ratio, diazoacetamide:azidoacetamide ([2]; CD3CN:D2O = 1:1): 8.5; k2 ratio, diazoacetamide:azidoacetamide ([2]; in CD3CN): 3.0
CCCCCC1C#CCCOS(=O)(=O)N1 (stereo not drawn) [4b]	–	1.0	–	–
CC(C)C1C#CCCOS(=O)(=O)N1 (stereo not drawn) [4c]	0.0040	0.16	a sixth	–
CC1C#CCCOS(=O)(=O)N1C(=O)OC(C)(C)C (stereo not drawn) [4d]	0.037	1.5	roughly half	k2 ratio, diazoacetamide:azidoacetamide ([2]; in CD3CN): 5.0
CCCCCC1C#CCCOS(=O)(=O)N1C(=O)OC(C)(C)C (stereo not drawn) [4e]	0.042	1.7	slowed slightly	–
CC(C)C1C#CCCOS(=O)(=O)N1C(=O)OC(C)(C)C (stereo not drawn) [4f]	–	–	an eighteenth	–
CC1C#CC(C)NS(=O)(=O)OC1 (stereo not drawn) [4g]	0.047	1.9	–	–
CCCCCC1C#CCCN(C(=O)OC(C)(C)C)S(=O)(=O)N1 (stereo not drawn) [4h]	0.0014	0.056	–	–
CCC1C#CC(F)(F)COS(=O)(=O)N1 (stereo not drawn) [8a]	–	–	–	Experimental Rate ([1]; dipole Bn—N3): 0.46 M⁻¹ s⁻¹; experimental rate enhancement in moving from 4 ([1]; reactions with alkyl azides (Bn—N3)): 18 ×
CCCCCC1C#CCCOS(=O)(=O)N1 (stereo not drawn) [compound 4]	–	–	–	Experimental Rate [3]: 0.27 M⁻¹ s⁻¹
[N-]=[N+]=NCc1ccccc1 [compound 5]	–	–	–	Experimental Rate (value in parentheses) ([1]; dipole Bn—N3, 2:1 D2O:CD3CN): 0.13 M⁻¹ s⁻¹; Experimental Rate ([1]; dipole Bn—N3): 0.087 M⁻¹ s⁻¹
dibenzoazacyclooctyne [DIBAC, reference compound]	–	–	–	k2 ratio, diazoacetamide:azidoacetamide ([2]; CD3CN:D2O = 1:1): 6.5; k2 ratio, diazoacetamide:azidoacetamide ([2]; in CD3CN): 2.0

From patent US10676449B2, “Electronically activated strained alkynes” (Wisconsin Alumni Research Foundation, priority 2017, dated 2020)
